pIC50: −log10 of the molar value. Residues, ends and D or L forms follow the SMILES beside them. No end group written: not given here.

One assay deals with human umbilical vein endothelial cells (HUVEC). The note with it: 48 h.
Experimental: Human umbilical vein endothelial cells (HUVEC) were isolated and cultured as previously described (Graham et al., Blood 91:3300-7 1998). Cells were of passage 3 or lower.
To assess the effect of peptides on endothelial cell proliferation, HUVEC were suspended at a concentration of 30,000 cells/ml in M199 containing 2% FCS. One hundred microliters of this suspension was then plated in individual wells of a 96 well microplate precoated with 1% gelatin. […] Cells were then incubated for 48 hours at 37° C., at which time the relative numbers of cells in each well were determined using the Cell Titer® Aqueous cell proliferation assay (Promega, Madison, Wis.). […] The significance of differences in relative endothelial cell proliferation cell numbers at the end of the proliferation assays was determined using the Student's two-tailed T-test for paired samples. The IC50 was then calculated for each compound.
Regarding `CC[C@H](C)[C@H](NC(=O)[C@H](CCCCN)NC(=O)[C@@H](N)[C@@H](C)O)C(=O)N[C@@H](CS)C(=O)N[C@H](C(=O)NCC(=O)N[C@@H](CS)C(=O)N1CCC[C@H]1C(=O)N[C@@H](CCCNC(=N)N)C(=O)N[C@@H](CC(=O)O)C(=O)N[C@H](C(=O)N1CCC[C@H]1C(=O)N[C@H](C(=O)N[C@@H](CC(N)=O)C(=O)N[C@@H](CO)C(=O)N1CCC[C@H]1C(=O)O)[C@@H](C)O)[C@@H](C)CC)C(C)C` [SEQ ID NO:11, Thr-Lys-Ile-Cys-Val-Gly-Cys-Pro-Arg-Asp-Ile-Pro-Thr-Asn-Ser-Pro] (H-TKICVGCPRDIPTNSP-OH), the negative logarithm of the IC50 (pIC50) (as a rule, the IC50 on a negative log10 scale, so that one unit is a factor of ten) is 4.52. Same read-out and setting: with “H-ETKKLGQSLDANAEVY-OH [SEQ ID NO:15, Glu-Thr-Lys-Lys-Leu-Gly-Gln-Ser-Leu-Asp-Ala-Asn-Ala-Glu-Val-Tyr]” the figure was 4.38. Same read-out and setting: with “H-LDANAEVYVVPWEKKI-OH [SEQ ID NO:16, Leu-Asp-Ala-Asn-Ala-Glu-Val-Tyr-Val-Val-Pro-Trp-Glu-Lys-Lys-Ile]” the figure was 4.36; with “H-NNATFYFKIDNVKKAR-OH [SEQ ID NO:10, Asn-Asn-Ala-Thr-Phe-Tyr-Phe-Lys-Ile-Asp-Asn-Val-Lys-Lys-Ala-Arg]”, > 6.10. The same measure, in the same setting: in the case of “H-TITKLNAENNATFYFK-OH [SEQ ID NO:9, Thr-Ile-Thr-Lys-Leu-Asn-Ala-Glu-Asn-Asn-Ala-Thr-Phe-Tyr-Phe-Lys]” it was > 6.10; in that of “YFIDFVARETTASKES-OH [SEQ ID NO:20, Tyr-Phe-Ile-Asp-Phe-Val-Ala-Arg-Glu-Thr-Thr-Ala-Ser-Lys-Glu-Ser]”, 4.55.

Staying with this assay, now noted: HUVEC, bFGF-induced proliferation.
On to “YFIDFVARETTASKES-OH [SEQ ID NO:20, Tyr-Phe-Ile-Asp-Phe-Val-Ala-Arg-Glu-Thr-Thr-Ala-Ser-Lys-Glu-Ser]”, for which the “Inhibition of endothelial cell proliferation (result in words)” value is “inhibits endothelial cell proliferation”.

For the origin of these results see US6869931B1, “Inhibition of angiogenesis by high molecular weight kininogen domain 3 peptide analogs” (Temple University - Of The Commonwealth System of Higher …, priority 1998, dated 2005).
